# Measurements: patent US9540289B2, “Chelated compositions and methods of making and using the same” (Scott G. Williams, LLC, priority 2010, dated 2017)
# Assay: Titration of 1% w/w solution with 0.5 M NaOH until precipitate forms
# Assay type: physicochemical
# Protocol: The finished material was tested by titration with 0.5 M NaOH. A 1% w/w solution was made of the material by placing 1.0042 g in a 100 mL of deionized water. 0.5 M NaOH was then titrated into this solution. The material absorbed 23.8 mL of the 0.5 M NaOH while the solution pH rose from about 2 to about 10.2, whereupon a precipitate formed.
substance,measurement,setting,value
zinc EDTA chelate [pure zinc EDTA chelate],0.5 M NaOH absorbed until a precipitate formed,"1% w/w solution in 100 mL deionized water, titrated with 0.5 M NaOH",5.8 mL
same,solution pH at which a precipitate formed,1% w/w solution titrated with 0.5 M NaOH,above 10.2
